Results: patent publication US5939403A, “Keratan sulfate oligosaccharide fraction and pharmaceutical containing the same” (Seikagaku Corporation, priority 1994, dated 1999)
Counter-ions that a name gives are not always drawn.

Key:
[1] = test system: lymphocytes; test: Cell differentiation induction: lymphocyte surface antigen of lymph node; type: in vivo, MRL-lpr/lpr mice; conditions: 10 mg/kg i.m., eight weeks; vs control, 2.5 and 5 mg/kg
Protocol: The PBS solution of the purified keratan sulfate disaccharide (III) which was prepared in Example 1 described above at a dose of 2.5 mg/kg, 5 mg/kg, or 10 mg/kg weight (hereinafter referred to as the 2.5 mg/kg administered group, the 5 mg/kg administered group, and the 10 mg/kg administered group, respectively), and PBS as the control (hereinafter sometimes referred to as the control group) was intramuscularly injected, respectively, to the femoral region of MRL-lpr/lpr mice seven times a week for eight weeks. After that, the mice were subjected to anatomization, and the lymph nodes were minced on a cell strainer (Falcon 2350) to prepare the lymphocyte. The lymphocyte prepared of each group was subjected to the double immune staining with the anti-CD3 antibody (Seikagaku Corporation) and the anti-CD4 antibody (Pharminjen), that with the anti-CD3 antibody and the anti-CD8a antibody (Pharminjen), and that with the anti-CD3 antibody and the anti-B220 antibody (Pharminjen), respectively. The CD3, CD4, and CDBa are cell surface antigens which are expressed on T cells, and the B220 is that expressed on B cells. And it is known that no expression of these cell surface antigens is observed on null lymphocytes.
The proportion (%) of the CD3 and CD4 positive cells (hereinafter sometimes referred to as "the CD3+CD4+cells"; mainly helper T cells) to all the lymphocytes and the standard errors are shown in FIG. 19, that of the CD3 and CD8a positive cells (hereinafter sometimes referred to as "the CD3+CD8a+cells"; mainly suppressor T cells and cytotoxic T cells) and the standard errors are shown in FIG. 20, and that of the CD3 and B220 positive cells (hereinafter sometimes referred to as "the CD3+B220+cells";abnormal T cells having the surface antigens of B cells) and the standard errors are shown in FIG. 21. In the figures, * represents that it has the significant difference with p<0.05 (wherein "p" means a level of significance by the Ryan multiple comparative test). In each group, seven mice were used.

[2] = test system: papain-induced arthritis; test: Papain-induced unilateral arthritis model, intramuscular administration (volume of synovial fluid); type: in vivo, Japanese white rabbits (female); conditions: for quantity of synovial fluid (FIG. 5, result in words): 10 rabbits per group; for Volume of Synovial Fluid: 7 days, control 722, normal 433
Protocol: The anti-inflammatory effect of the keratan sulfate oligosaccharide with rabbits of the papain-induced arthritis model was examined using the volume of synovial fluid as an indication.
Seven days after the injection, the blood was drawn from the auricular artery, and plasma containing heparin was separated. After drawing the blood, the rabbits were anatomized and the both knee joint were separated. The articular cavity was washed with 2 ml of saline three times to recover the synovial fluid. The calcium concentrations in the plasma and the recovered synovial fluid were determined, and the volume of synovial fluid was calculated from the following formula.
Volume of Synovial Fluid (ul/articulation)=Amount of Calcium in Recovered
Synovial Fluid (μg/articulation)/Concentration of Calcium in Plasma
Into the articular cavity of left joint of Japanese white rabbits (female) of 3 kg weight, 150 μl of the saline solution of papain (1%) was injected, and the right joint was not treated to prepare the unilateral arthritis model. One day after injecting papain, 150 μl of the PBS solution of the purified keratan sulfate tetrasaccharide (I) (2%, 1%, and 0.5% solution; 1.0 mg/kg, 0.5 mg/kg, and 0.25 mg/kg, respectively) which was prepared in Example 1 was injected into the hip muscle of the left side (hereinafter referred to as "the keratan sulfate tetrasaccharide (I) administered group"). As the control, 150 μl of PBS was injected to the arthritis model instead of the PBS solution of the keratan sulfate tetrasaccharide (I) and hereinafter these rabbits are referred to as "the control group". And the normal rabbits not subjected to the papain injection (hereinafter referred to as "the normal group") were also examined in the same manner hereinafter. Seven days after the injection, the volume of synovial fluid was calculated in the same manner as in (1-1).
The examination was performed in the same manner as in (1-3) except for using 150 μl of the PBS solution of the purified keratan sulfate tetrasaccharide (I), the keratan sulfate pentasaccharide (II), and the keratan sulfate disaccharide (III) (1% solution; 0.5 mg/kg) which were prepared in Example 1. In the figure, *, **, and *** represent that they have the significant difference with p<0.05, p<0.01, and p<0.001, respectively. And in each group, 10 rabbits were used for the examination.

[3] = test system: MRL-lpr/lpr mice; test: Repeated intramuscular administration for four weeks in MRL mice (spleen and mesenteric lymph node weight); type: in vivo
Protocol: The effect of the keratan sulfate oligosaccharide was examined on MRL mice which are autoimmune disease model mice.
The PBS solution of the purified keratan sulfate tetrasaccharide (I) (100 mg/ml) which was prepared in Example 1 described above at a dose of 10 mg/kg weight (hereinafter referred to as the administered group), and PBS as the control was intramuscularly injected, respectively, to the femoral region of MRL-lpr/lpr mice five times a week for four weeks. After that, the mice were subjected to anatomization, and the weight of spleens and mesenteric lymph nodes were determined to obtain the average weight. In the table, "n" represents the number of mice used.

[4] = test system: carrageenin pleurisy; test: Carrageenin pleurisy model; type: in vivo, Female S.D. rats; conditions: six hours
Protocol: The effect of the keratan sulfate oligosaccharide was examined with the carrageenin pleurisy model of rats which is generally used for evaluation of anti-inflammatory agents.
Female S.D. rats (n=37) of about 150 to 170 g weight were used for the test. The λ-carrageenin (Sigma) was dissolved in saline to a concentration of 2%, and the solution was filtered with a 0.8 μm filter. The carrageenin solution obtained was intrathoracically administered at 100 μl/animal to prepare the pleurisy model.
To the pleurisy model of rats (n=19) described above, the keratan sulfate tetrasaccharide (I) dissolved in PBS was subcutaneously (s.c.) administered in 20 mg/kg or 10 mg/kg dose. And as the positive control, steroid (dexamethasone acetate; Banyu Pharmaceutical) was subcutaneously administered to the eight rats described above in 150 μg/kg which was the clinical dose. As the negative control, PBS was subcutaneously administered to the 10 rats. Each administration was carried out immediately after the administration of carrageenin.
Each rat was anatomized six hours after the administration of λ-carrageenin. The thoracic cavity of the rats was opened to collect the retained pleural fluid using a 2-ml syringe with probe. After that, inside of the thoracic cavity was washed with 1 ml of saline, and the washing solution was recovered. The volume of the pleural fluid recovered with the syringe was determined, and the number of leukocyte (cell number) in the pleural fluid was determined by an automatic cytometer. The results are be shown in FIG. 8 and FIG. 9, respectively. In the figures, * and ** represent that they have the significant difference with p<0.05 and p<0.01, respectively (wherein "p" means a level of significance by the Duncan test).

[5] = 0.5 mg/kg intramuscular, unilateral model

SMILES	proportion of CD3+B220+ cells (FIG. 21) [1]	proportion of CD3+CD4+ cells (FIG. 19) [1]	proportion of CD3+CD8a+ cells (FIG. 20) [1]	quantity of synovial fluid (FIG. 5, result in words) [2, 5]	weight increase in spleens and mesenteric lymph nodes (result in words) ([3]; 10 mg/kg i.m.)	Spleen Weight ([3]; 10 mg/kg i.m. five times a week, n = 9, mean ± standard error, control 1013 ± 233) [mg]	Mesenteric Lymph Node Weight ([3]; 10 mg/kg i.m. five times a week, n = 9, mean ± standard error, control 1563 ± 352) [mg]	number of leukocyte in pleural fluid (FIG. 9) ([4]; 10 mg/kg and 20 mg/kg s.c.)	volume of pleural fluid (FIG. 8) ([4]; 10 mg/kg s.c.)	volume of pleural fluid (FIG. 8), dose comparison ([4]; 10 mg/kg vs 20 mg/kg s.c.)	Volume of Synovial Fluid ([2]; 0.25 mg/kg intramuscular, n = 9, SD 70.6, p < 0.05) [µL]	Volume of Synovial Fluid ([2]; 0.5 mg/kg intramuscular, n = 10, SD 68.9, p < 0.01) [µL]	Volume of Synovial Fluid ([2]; 1.0 mg/kg intramuscular, n = 9, SD 53.1, p < 0.01) [µL]	volume of synovial fluid (result in words) ([2]; 0.25, 0.5, 1.0 mg/kg intramuscular, unilateral model)
CC(=O)N[C@H]1C(O)O[C@H](COS(=O)(=O)O)[C@@H](O[C@@H]2O[C@H](COS(=O)(=O)O)[C@H](O)[C@H](O)[C@H]2O)[C@@H]1O (stereo partly drawn) [keratan sulfate disaccharide (III), Gal(6S)β1-4GlcNAc(6S)]	decreased	increased significantly	increased	significantly less than that in the control group										
CC(=O)N[C@H]1[C@H](O[C@H]2[C@@H](O)[C@@H](COS(=O)(=O)O)O[C@@H](O[C@H]3[C@H](O)[C@@H](NC(C)=O)C(O)O[C@@H]3COS(=O)(=O)O)[C@@H]2O)O[C@H](COS(=O)(=O)O)[C@@H](O[C@@H]2O[C@H](COS(=O)(=O)O)[C@H](O)[C@H](O)[C@H]2O)[C@@H]1O (stereo partly drawn) [keratan sulfate tetrasaccharide (I), Gal(6S)β1-4GlcNAc(6S)β1-3Gal(6S)β1-4GlcNAc(6S)]				significantly less than that in the control group	a suppressive tendency for the weight increase in spleens and mesenteric lymph nodes was observed	704 ± 148	1338 ± 311	significantly less than that in the negative control group, and dose-dependent decrease was observed	significantly less than that in the negative control group	almost same as that in the keratan sulfate tetrasaccharide (I) 20 mg/kg administered group	619	597	528	significantly less than that in the control group
